From US11446287B2, “Compounds and methods for EP300 or CBP modulation and indications therefor” (Opna Immuno-Oncology SA, priority 2019, dated 2022)

These compounds were tested against T1, Recombinant human CBP containing the bromodomain (CBP-BD (1043-1159)) (Homo sapiens, UniProt Q92793) (assay: CBP Alphascreen binding assay). Settings: read-out: CREBBP (CBP) IC50.
T1 construct: Recombinant human CBP bromodomain (CBP-BD (1043-1159)); made in house; host or cells: E. coli BL21-CodonPlus (DE3), modified pET vector
In short: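 Buffer: 50 mM HEPES pH 7.5, 50 mM NaCl, 0.01% BSA, 0.01% Triton X-100, 2 mM DTT. The signal was normalised to plate controls and fitted with a four-parameter curve to give IC50.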

T1 sequence (Q92793 1081-1197): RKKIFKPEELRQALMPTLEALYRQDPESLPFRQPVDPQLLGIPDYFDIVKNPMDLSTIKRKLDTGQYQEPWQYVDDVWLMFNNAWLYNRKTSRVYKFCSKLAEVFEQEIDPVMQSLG

| SMILES | IC50 |
| --- | --- |
| Cc1noc(C)c1-c1cnc2c(c1)c(-c1ccc(C(=O)O)cc1OC(F)(F)F)cn2[C@@H]1CCOC1 [P-0286, (R)-4-(5-(3,5-dimethylisoxazol-4-yl)-1-(tetrahydrofuran-3-yl)-1H-pyrrolo[2,3-b]pyridin-3-yl)-3-(trifluoromethoxy)benzoic acid] | 0.0001 to 1 µM |
| Cc1noc(C)c1-c1cnc2c(c1)c(-c1ccc(C(=O)O)cc1OC(F)(F)F)cn2-c1ccncc1F [P-0293, 4-(5-(3,5-dimethylisoxazol-4-yl)-1-(3-fluoropyridin-4-yl)-1H-pyrrolo[2,3-b]pyridin-3-yl)-3-(trifluoromethoxy)benzoic acid] | 0.0001 to 1 µM |
| Cc1noc(C)c1-c1cnc2c(c1)c(-c1ccc(C(=O)O)cc1OC(F)(F)F)cn2-c1ccc(C(C)(C)O)cc1 [P-0314, 4-(5-(3,5-dimethylisoxazol-4-yl)-1-(4-(2-hydroxypropan-2-yl)phenyl)-1H-pyrrolo[2,3-b]pyridin-3-yl)-3-(trifluoromethoxy)benzoic acid] | 0.0001 to 1 µM |
| Cc1noc(C)c1-c1cnc2c(c1)c(-c1ccc3c(c1)CNC3=O)cn2C(c1ccccn1)C1CCCC1 (stereo not drawn) [P-0023, 5-(1-(cyclopentyl(pyridin-2-yl)methyl)-5-(3,5-dimethylisoxazol-4-yl)-1H-pyrrolo[2,3-b]pyridin-3-yl)isoindolin-1-one] | 1 to 8 µM |
| Cc1noc(C)c1-c1cnc2c(c1)c(-c1cc(C(=O)O)ccc1OC(F)(F)F)cn2-c1ccc(F)cc1F [P-0268, 3-(1-(2,4-difluorophenyl)-5-(3,5-dimethylisoxazol-4-yl)-1H-pyrrolo[2,3-b]pyridin-3-yl)-4-(trifluoromethoxy)benzoic acid] | 0.0001 to 1 µM |
| Cc1noc(C)c1-c1cnc2c(c1)c(-c1ccc(C(=O)O)cc1OCC(F)F)cn2-c1ccccc1 [P-0277, 3-(2,2-difluoroethoxy)-4-(5-(3,5-dimethylisoxazol-4-yl)-1-phenyl-1H-pyrrolo[2,3-b]pyridin-3-yl)benzoic acid] | 0.0001 to 1 µM |
| Cc1noc(C)c1-c1cnc2c(-c3cccc(C(=O)O)c3C)c(C(F)(F)F)n([C@@H](C)c3ccccn3)c2c1 [P-0246, (S)-3-(6-(3,5-dimethylisoxazol-4-yl)-1-(1-(pyridin-2-yl)ethyl)-2-(trifluoromethyl)-1H-pyrrolo[3,2-b]pyridin-3-yl)-2-methylbenzoic acid] | 1 to 8 µM |
| Cc1noc(C)c1-c1cnc2c(c1)c(-c1cnn(CC(=O)O)c1)cn2C(C1CC1)C1CC1 [P-0280, 2-(4-(1-(dicyclopropylmethyl)-5-(3,5-dimethylisoxazol-4-yl)-1H-pyrrolo[2,3-b]pyridin-3-yl)-1H-pyrazol-1-yl)acetic acid] | 0.0001 to 1 µM |
| CCOc1cc(C(=O)O)cc(OCC)c1-n1cc(-c2cnn(CCN(C)C)c2)c2ncc(-c3c(C)noc3C)cc21 [P-0262, 4-(3-(1-(2-(dimethylamino)ethyl)-1H-pyrazol-4-yl)-6-(3,5-dimethylisoxazol-4-yl)-1H-pyrrolo[3,2-b]pyridin-1-yl)-3,5-diethoxybenzoic acid] | 0.0001 to 1 µM |
| Cc1noc(C)c1-c1cnc2c(c1)c(-c1cc(C(=O)O)ccc1OC(F)(F)F)cn2C(C1CC1)C1CC1 [P-0284, 3-(1-(dicyclopropylmethyl)-5-(3,5-dimethylisoxazol-4-yl)-1H-pyrrolo[2,3-b]pyridin-3-yl)-4-(trifluoromethoxy)benzoic acid] | 0.0001 to 1 µM |
| Cc1noc(C)c1-c1cnc2c(c1)c(-c1c(Cl)cc(C(=O)O)cc1OC(C)C)cn2C(C1CC1)C1CC1 [P-0283, 3-chloro-4-(1-(dicyclopropylmethyl)-5-(3,5-dimethylisoxazol-4-yl)-1H-pyrrolo[2,3-b]pyridin-3-yl)-5-isopropoxybenzoic acid] | 0.0001 to 1 µM |
| Cc1noc(C)c1-c1cnc2c(c1)c(-c1ccc(C(=O)O)cc1OC(F)(F)F)cn2C1CCNCC1 [P-0290, 4-(5-(3,5-dimethylisoxazol-4-yl)-1-(piperidin-4-yl)-1H-pyrrolo[2,3-b]pyridin-3-yl)-3-(trifluoromethoxy)benzoic acid] | 0.0001 to 1 µM |
| Cc1noc(C)c1-c1cnc2c(c1)c(-c1ccc(C(=O)O)cc1OCC(F)(F)F)cn2-c1ccccc1 [P-0278, 4-(5-(3,5-dimethylisoxazol-4-yl)-1-phenyl-1H-pyrrolo[2,3-b]pyridin-3-yl)-3-(2,2,2-trifluoroethoxy)benzoic acid] | 0.0001 to 1 µM |
| CCOc1c(F)c(C(=O)O)c(F)c(OCC)c1-c1cn(-c2ccc(F)cc2F)c2ncc(-c3c(C)noc3C)cc12 [P-0296, 4-(1-(2,4-difluorophenyl)-5-(3,5-dimethylisoxazol-4-yl)-1H-pyrrolo[2,3-b]pyridin-3-yl)-3,5-diethoxy-2,6-difluorobenzoic acid] | 0.0001 to 1 µM |
| CCOc1cc(C(=O)O)ncc1-c1cn(-c2ccc(F)cc2F)c2ncc(-c3c(C)noc3C)cc12 [P-0295, 5-(1-(2,4-difluorophenyl)-5-(3,5-dimethylisoxazol-4-yl)-1H-pyrrolo[2,3-b]pyridin-3-yl)-4-ethoxypicolinic acid] | 0.0001 to 1 µM |
| CCOc1cc(C(=O)O)cc(OCC)c1-n1cc(-c2cn(C(C)C)nc2C)c2ncc(-c3c(C)noc3C)cc21 [P-0259, 4-(6-(3,5-dimethylisoxazol-4-yl)-3-(1-isopropyl-3-methyl-1H-pyrazol-4-yl)-1H-pyrrolo[3,2-b]pyridin-1-yl)-3,5-diethoxybenzoic acid] | 0.0001 to 1 µM |
| Cc1noc(C)c1-c1cnc2c(c1)c(-c1ccc(C#N)cc1)cn2C(c1ccccn1)C1CCCC1 (stereo not drawn) [P-0022, 4-(1-(cyclopentyl(pyridin-2-yl)methyl)-5-(3,5-dimethylisoxazol-4-yl)-1H-pyrrolo[2,3-b]pyridin-3-yl)benzonitrile] | 8 to 1000 µM |
| CCOc1cc(OC)c(C(=O)O)cc1-c1cn(-c2ccc(F)cc2F)c2ncc(-c3c(C)noc3C)cc12 [P-0250, 5-(1-(2,4-difluorophenyl)-5-(3,5-dimethylisoxazol-4-yl)-1H-pyrrolo[2,3-b]pyridin-3-yl)-4-ethoxy-2-methoxybenzoic acid] | 0.0001 to 1 µM |
| CCn1cc(-n2cc(-c3ccc(C(=O)O)cc3OC(F)(F)F)c3cc(-c4c(C)noc4C)cnc32)c(C)n1 [P-0287, 4-(5-(3,5-dimethylisoxazol-4-yl)-1-(1-ethyl-3-methyl-1H-pyrazol-4-yl)-1H-pyrrolo[2,3-b]pyridin-3-yl)-3-(trifluoromethoxy)benzoic acid] | 0.0001 to 1 µM |
| Cc1noc(C)c1-c1cnc2c(c1)c(-c1ccc(S(C)(=O)=O)cc1OC(C)C)cn2-c1ccccc1 [P-0302, 4-(3-(2-isopropoxy-4-(methylsulfonyl)phenyl)-1-phenyl-1H-pyrrolo[2,3-b]pyridin-5-yl)-3,5-dimethylisoxazole] | 0.0001 to 1 µM |
| Cc1noc(C)c1-c1cnc2c(c1)c(-c1ccc(C(=O)O)cc1OC(F)(F)F)cn2-c1ccccc1C#N [P-0309, 4-(1-(2-cyanophenyl)-5-(3,5-dimethylisoxazol-4-yl)-1H-pyrrolo[2,3-b]pyridin-3-yl)-3-(trifluoromethoxy)benzoic acid] | 0.0001 to 1 µM |
| Cc1noc(C)c1-c1cnc2c(-c3cccc(C(=O)O)c3F)c(C(F)(F)F)n([C@@H](C)c3ccccn3)c2c1 [P-0245, (S)-3-(6-(3,5-dimethylisoxazol-4-yl)-1-(1-(pyridin-2-yl)ethyl)-2-(trifluoromethyl)-1H-pyrrolo[3,2-b]pyridin-3-yl)-2-fluorobenzoic acid] | 0.0001 to 1 µM |
| CNC(=O)c1ccc(-c2cn(C(c3ccccn3)C3CCCC3)c3ncc(-c4c(C)noc4C)cc23)cc1 (stereo not drawn) [P-0021, 4-(1-(cyclopentyl(pyridin-2-yl)methyl)-5-(3,5-dimethylisoxazol-4-yl)-1H-pyrrolo[2,3-b]pyridin-3-yl)-N-methylbenzamide] | 1 to 8 µM |
| COc1cc(-c2c(C(F)(F)F)n([C@@H](C)c3ccccn3)c3cc(-c4c(C)noc4C)cnc23)ccc1C(=O)O [P-0244, (S)-4-(6-(3,5-dimethylisoxazol-4-yl)-1-(1-(pyridin-2-yl)ethyl)-2-(trifluoromethyl)-1H-pyrrolo[3,2-b]pyridin-3-yl)-2-methoxybenzoic acid] | 1 to 8 µM |
| Cc1noc(C)c1-c1cnc2c(c1)c(-c1ccc(C(=O)O)cc1OC(F)(F)F)cn2-c1cnccc1F [P-0251, 4-(5-(3,5-dimethylisoxazol-4-yl)-1-(4-fluoropyridin-3-yl)-1H-pyrrolo[2,3-b]pyridin-3-yl)-3-(trifluoromethoxy)benzoic acid] | 0.0001 to 1 µM |
| CCOc1cc(C(=O)O)cc(OCC)c1-n1cc(-c2cn(C)nc2C)c2ncc(-c3c(C)noc3C)cc21 [P-0263, 4-(3-(1,3-dimethyl-1H-pyrazol-4-yl)-6-(3,5-dimethylisoxazol-4-yl)-1H-pyrrolo[3,2-b]pyridin-1-yl)-3,5-diethoxybenzoic acid] | 0.0001 to 1 µM |
| Cc1noc(C)c1-c1cnc2c(c1)c(-c1ccc(C(=O)O)cc1OC(F)(F)F)cn2-c1ccccc1C1CC1 [P-0308, 4-(1-(2-cyclopropylphenyl)-5-(3,5-dimethylisoxazol-4-yl)-1H-pyrrolo[2,3-b]pyridin-3-yl)-3-(trifluoromethoxy)benzoic acid] | 0.0001 to 1 µM |
| Cc1noc(C)c1-c1cnc2c(c1)c(-c1ccc(C(=O)O)cc1OC(C)C)cn2[C@H]1CCOC1 [P-0301, (S)-4-(5-(3,5-dimethylisoxazol-4-yl)-1-(tetrahydrofuran-3-yl)-1H-pyrrolo[2,3-b]pyridin-3-yl)-3-isopropoxybenzoic acid] | 0.0001 to 1 µM |
| Cc1noc(C)c1-c1cnc2c(c1)c(-c1ccc(C(=O)O)cc1OC(C)C)cn2-c1cnn(CC(C)(C)O)c1 [P-0299, 4-(5-(3,5-dimethylisoxazol-4-yl)-1-(1-(2-hydroxy-2-methylpropyl)-1H-pyrazol-4-yl)-1H-pyrrolo[2,3-b]pyridin-3-yl)-3-isopropoxybenzoic acid] | 0.0001 to 1 µM |
| Cc1noc(C)c1-c1cnc2c(c1)c(-c1ccc(C(=O)O)cc1OC(F)(F)F)cn2-c1cnn(C(F)F)c1C [P-0289, 4-(1-(1-(difluoromethyl)-5-methyl-1H-pyrazol-4-yl)-5-(3,5-dimethylisoxazol-4-yl)-1H-pyrrolo[2,3-b]pyridin-3-yl)-3-(trifluoromethoxy)benzoic acid] | 0.0001 to 1 µM |
